Data on three compounds can be found in patent US5446130A, “Parathyroid hormone antagonists” (Mitsubishi Kasei Corporation, priority 1990, dated 1995).

For the test, the system named is output of cAMP produced by 5×10^-9 M hPTH (1-34) in cultured mouse osteoblast MC3T3-E1. As to the kind of experiment: Determination of PTH antagonism: inhibition of cAMP output induced by hPTH (1-34) in cultured mouse osteoblast MC3T3-E1. The class given is cell-based. To be noted: for IC50 Ratio: Table 3, 50% inhibition of cAMP output by 5×10^-9 M hPTH (1-34), ratio to control [Tyr34]-hPTH (3-34)-NH2 = 1. Here is the method:
PTH antagonism of the PTHrP derivatives (I) of the present invention was determined on the basis of the output of cAMP, using cultured mouse osteoblast MC3T3-E1.
To a multiwell-culture plate of 12-well were inoculated 1×10^5 cells/well of the cultured cells, and the plate was incubated at 37° C. under 95% air-5% CO2 atmosphere for 3 days after addition of α-modified MEM containing 10% semi-fetal bovine serum as a medium. Then, the medium was exchanged with α-modified MEM containing 1% bovine serum albumin and the cultured cells were incubated for 6 hours. The medium was replaced by α-modified MEM containing various concentrations of the compound of the present invention, 5×10^-9 M hPTH (1-34), 1% bovine serum albumin and 1 mM isobutylmethylxanthin, and the mixture was incubated for 1 hour. The medium was separated from the cells, and the medium was used as a sample for assaying cAMP. The cells were shaken with 90% n-propyl alcohol to extract cAMP according to Yamaguchi et al., J. Biol. Chem., 262, 7711-7718 (1987) for preparing another sample.
Assay of cAMP was performed using a commercially available cAMP-radioimmunoassay kit. […] Compound numbers in the tables correspond to those in Table 2.

Turning to `CC[C@H](C)[C@H](NC(=O)[C@H](CC(C)C)NC(=O)[C@H](Cc1c[nH]cn1)NC(=O)[C@H](Cc1c[nH]cn1)NC(=O)[C@H](CC(C)C)NC(=O)[C@H](Cc1ccccc1)NC(=O)[C@H](Cc1ccccc1)NC(=O)[C@H](CCCNC(=N)N)NC(=O)[C@H](CCCNC(=N)N)NC(=O)[C@H](CCCNC(=N)N)NC(=O)[C@H](CC(C)C)NC(=O)[C@H](CC(=O)O)NC(=O)[C@H](CCC(N)=O)NC(=O)[C@@H](NC(=O)[C@H](CO)NC(=O)[C@H](CCCCN)NC(=O)CNC(=O)[C@H](CC(C)C)NC(=O)[C@H](C)NC(=O)[C@H](Cc1c[nH]cn1)NC(=O)[C@H](CCSC)NC(=O)[C@H](CC(C)C)NC(=O)[C@H](CCC(N)=O)NC(=O)[C@@H](NC(=O)[C@H](CCC(=O)O)NC(=O)[C@@H](N)CO)[C@@H](C)CC)[C@@H](C)CC)C(=O)N[C@@H](C)C(=O)N[C@@H](CCC(=O)O)C(=O)N[C@H](C(=O)N[C@@H](Cc1c[nH]cn1)C(=O)N[C@H](C(=O)N[C@@H](C)C(N)=O)[C@@H](C)O)[C@@H](C)CC` [Compound No. 1], the “IC50 Ratio” value came to 0.003. The “concentration for 50% inhibition as fraction of that of [Tyr^34 ]-hPTH (3-34)-NH2” value (relative to [Tyr34]-hPTH (3-34)-NH2) is “below 1/300”. Moreover, the “concentration for 50% inhibition as fraction of that of hPTHrP (3-34)-NH2” value (relative to hPTHrP (3-34)-NH2) is recorded as “about 1/29”.

Regarding `CC[C@H](C)[C@H](NC(=O)[C@H](CC(C)C)NC(=O)[C@H](Cc1c[nH]cn1)NC(=O)[C@H](Cc1c[nH]cn1)NC(=O)[C@H](CC(C)C)NC(=O)[C@H](Cc1ccccc1)NC(=O)[C@H](Cc1ccccc1)NC(=O)[C@H](CCCNC(=N)N)NC(=O)[C@H](CCCNC(=N)N)NC(=O)[C@H](CCCNC(=N)N)NC(=O)[C@H](CC(C)C)NC(=O)[C@H](CC(=O)O)NC(=O)[C@H](CCC(N)=O)NC(=O)[C@@H](NC(=O)[C@H](CO)NC(=O)[C@H](CCCCN)NC(=O)CNC(=O)[C@H](CC(C)C)NC(=O)[C@H](CCC(N)=O)NC(=O)[C@H](Cc1c[nH]cn1)NC(=O)[C@H](CCSC)NC(=O)[C@H](CC(C)C)NC(=O)[C@H](CCC(N)=O)NC(=O)[C@@H](NC(=O)[C@H](CCC(=O)O)NC(=O)[C@@H](N)CO)[C@@H](C)CC)[C@@H](C)CC)C(=O)N[C@@H](C)C(=O)N[C@@H](CCC(=O)O)C(=O)N[C@H](C(=O)N[C@@H](Cc1c[nH]cn1)C(=O)N[C@H](C(=O)N[C@@H](C)C(N)=O)[C@@H](C)O)[C@@H](C)CC` [Compound No. 2], the “IC50 Ratio” value came to 0.003. Regarding `CC[C@H](C)[C@H](NC(=O)[C@H](CC(C)C)NC(=O)[C@H](Cc1c[nH]cn1)NC(=O)[C@H](Cc1c[nH]cn1)NC(=O)[C@H](CC(C)C)NC(=O)[C@H](Cc1ccccc1)NC(=O)[C@H](Cc1ccccc1)NC(=O)[C@H](CCCNC(=N)N)NC(=O)[C@H](CCCNC(=N)N)NC(=O)[C@H](CCCNC(=N)N)NC(=O)[C@H](CC(C)C)NC(=O)[C@H](CC(=O)O)NC(=O)[C@H](CCC(N)=O)NC(=O)[C@@H](NC(=O)[C@H](CO)NC(=O)[C@H](CCCCN)NC(=O)CNC(=O)[C@H](CCCCN)NC(=O)[C@H](CC(=O)O)NC(=O)[C@H](Cc1c[nH]cn1)NC(=O)[C@H](CCSC)NC(=O)[C@H](CC(C)C)NC(=O)[C@H](CCC(N)=O)NC(=O)[C@@H](N)Cc1ccccc1)[C@@H](C)CC)C(=O)N[C@@H](C)C(=O)N[C@@H](CCC(=O)O)C(=O)N[C@H](C(=O)N[C@@H](Cc1c[nH]cn1)C(=O)N[C@H](C(=O)N[C@@H](C)C(N)=O)[C@@H](C)O)[C@@H](C)CC` [Compound No. 8], the “IC50 Ratio” value worked out at 0.026.
